According to patent US11985977B2, “Use of composition as a growth promotant for plants” (UENME Global Pty LTD, priority 2018, dated 2024):

Columns and labels:
[1] = system: avocado (Persea americana); assay: Avocado orchard soil spray trial (Example 1); type: in vivo
Protocol: In an avocado (Persea americana) orchard in Queensland, an area of the orchard was selected with poor tree health.
TMT supplied in a 15% aqueous solution was diluted in collected rainwater at 1 in 400, namely in a 0.0375% w/v aqueous solution, was applied with a fire-fighting pump and sprayed to the soil only beneath two trees. This spraying mimicked a tree sprinkler application and was applied as twenty litres per tree.

[2] = system: Rhodes grass; assay: Rhodes grass pasture dieback trial (Example 2); type: in vivo; settings: 0.03% w/v applied 27 Jun. 2017; sample taken 8 Aug., kept in 10 ml rainwater, observed by 28 Aug. 2017; no change on untreated control
Protocol: On a property near Gin Gin, Queensland a pasture area of Rhodes grass was suffering from “pasture dieback”.
On 27 Jun. 2017 TMT supplied in a 15% aqueous solution diluted in rainwater at 1 in 500 (10 ml/5 L), namely in a 0.03% w/v aqueous solution was applied to a portion of that pasture area hereinafter referred to as the “treated grass”.
On 8 Aug. 2017 grass samples were taken from the treated grass (as a test sample) and from the surrounding untreated grass (as a control sample), and each of these grass samples were placed in separate open containers containing 10 ml of rainwater.

[3] = system: native bloodwood (Eucalyptus) trees; assay: Bloodwood trees, bark and soil drench (Example 3); type: in vivo; settings: 0.03% w/v, three applications drenching bark and surrounding soil; trees appeared to be dying
Protocol: On 10 Apr. 2017 TMT supplied in a 15% aqueous solution diluted in rainwater at 1 in 500 (10 ml/5 L), namely in 0.03% w/v aqueous solution was first applied by drenching the bark and surrounding soil for each of the three.
Second and third similar applications of a 0.03% w/v TMT aqueous solution were made to the three trees on 3 June and 27 June respectively.

[4] = Growth stimulation by TMT mixed with liquid humate solution and powdered zeolite; type: in vivo; settings: TMT mixed with a liquid humate solution containing fine powdered zeolite (<40 u)
[5] = system: Phytophthora; assay: Laboratory study on Phytophthora in avocado soil (Example 4); type: cell-based
Protocol: Laboratory study on Phytophthora (30 Sep. 2017 onwards to August 2018)
Crop avocado soil with Phytophthora.
Treatment TMT supplied in a 15% aqueous solution diluted at 1:500 (10 ml/5 L)

[6] = system: Phellinus; assay: Similar laboratory study on Phellinus from avocado and Eucalyptus; type: cell-based; settings: similar TMT aqueous solutions; pathogens found on avocado and Eucalyptus
[7] = system: Pithium; assay: Similar laboratory study on Pithium from avocado and Eucalyptus; type: cell-based; settings: similar TMT aqueous solutions; pathogens found on avocado and Eucalyptus
[8] = system: fungal pathogens Phellinus and Phytophthora; assay: Mango orchard foliar and stem spray, fungal pathogens (Example 5); type: in vivo; settings: 0.03% w/v, foliar and stem spray 2 litre/tree, once, twice or three times two weeks apart; three mango trees
Protocol: TMT supplied in a 15% aqueous solution diluted in rainwater at 1 in 500 (10 ml/5 L), namely in 0.03% w/v aqueous solution was used. These three trees were foliar and stem sprayed (2 litre/tree each time) with the solution, once, twice or three times some two weeks apart. The fungal pathogen was killed. The growth response was extraordinary, but in order of the number of sprays. Leaves in both number and size followed suit as did flower spikes and fruit set. Fruit harvested was 10% greater in mass for each additional spray.

[9] = system: mango (Mangifera indica); assay: Mango orchard foliar and stem spray, growth and fruit (Example 5); type: in vivo
Protocol: TMT supplied in a 15% aqueous solution diluted in rainwater at 1 in 500 (10 ml/5 L), namely in 0.03% w/v aqueous solution was used. These three trees were foliar and stem sprayed (2 litre/tree each time) with the solution, once, twice or three times some two weeks apart.

[10] = system: mango trees (cv Kensington Pride); assay: Second mango trial, fruit and tree health (Example 6); type: in vivo, Mangifera indica
[11] = system: Phellinus (fungal pathogen); assay: Second mango trial, fungal pathogen (Example 6); type: in vivo; settings: spraying as in Example 5; Phellinus fruiting bodies under the bark at start
[12] = system: Fusarium oxysporum; assay: Banana plantation foliar spray trial (Example 7); type: in vivo; settings: 0.03% w/v foliar spray, seven affected banana plants (cv Lady Finger); no change in water-sprayed control
Protocol: On a banana (Musa) plantation in Queensland, banana plants (cv Lady Finger) were identified to be affected with Fusarium oxysporum (an ascomycete fungus). Vascular colourisation was seen where the fungus had colonised. A trial using foliar sprays was used. TMT supplied in a 15% aqueous solution diluted in rainwater at 1 in 500 (10 ml/5 L), namely in 0.03% w/v aqueous solution was used for the foliar spraying of seven affected banana plants.

[13] = system: mango (Mangifera indica) trees (cv Kensington Pride); assay: Mango early flowering and fruiting, foliar spray (Example 8); type: in vivo; settings: 0.03% w/v
Protocol: These mango trees are in rocky poor soil, that is not irrigated.
On 28 Jun. 2019, TMT supplied in a 15% aqueous solution diluted in rainwater at 1 in 500 (10 ml/5 L), namely in 0.03% w/v aqueous solution was applied by foliar spraying.

[14] = system: Macadamia tree; assay: Macadamia tree foliar spray, early flowering; type: in vivo
From the text: On the same property as in Example 8, a Macadamia tree was also foliar sprayed on 28 Jun.

[15] = system: Native pine trees (Auracaria spp.); assay: Native pine trees spray; type: in vivo; settings: sprayed 28 Jun. 2019
From the text: Native pine trees (Auracaria spp.) of differing varieties, also on the same property as in Example 8, were also sprayed on the 28 Jun.

[16] = system: blue grass, couch, Rhodes and turf grasses; assay: Grass trials (die back); type: in vivo
Protocol: Trials were performed on grazing land, a football field, a house front lawn with controls and on golf course couch greens. In all trials on soil with spray application (50 L/50 m^2) relative to controls with water only or TMT+humate solution applied in zeolite or in biochar+/− TMT and humate, 1 kg/10 m^2 with 40 L of solution/T of absorbent.

[17] = system: Araucaria, Cassia and Bauhinia, Grevillea; assay: Tree trials, spraying; type: in vivo; settings: 0.03% w/v spray; after a few weeks of spraying
[18] = system: blue gum, spotted gum, blood wood, lemon scented gum, Moreton Bay ash and Corymbia costata; assay: Additional Eucalypt trials, bark spray; type: in vivo, Eucalypts; settings: bark sprayed; drought conditions, Phytophthora in the soil
Protocol: Additional trials were also carried out on Eucalypts other than that described in Example 3.
Under current drought conditions and the presence of Phytophthora in the soil, all of the additional trees we trialled looked close to death. The bark of all the following trees were sprayed viz. blue gum, spotted gum, blood wood, lemon scented gum, Moreton Bay ash and Corymbia costata.

[19] = system: hemp, macadamias, grapes, citrus (mandarins) and capsicum; assay: Various other crop trials, spraying; type: in vivo; settings: 0.03% w/v spray
[20] = system: Phellinus spp.; assay: Contact kill of soil borne fungal pathogens; type: cell-based; settings: TMT diluted with water
From the text: (§1) TMT diluted with water kills the soil borne fungal pathogens, Phytothphora cinnamomi, Pithium spp., and Phellinus spp. on contact.

[21] = system: Phytothphora cinnamomi; assay: Contact kill of soil borne fungal pathogens; type: cell-based; settings: TMT diluted with water
From the text: as §1

[22] = system: Pithium spp.; assay: Contact kill of soil borne fungal pathogens; type: cell-based; settings: TMT diluted with water
From the text: as §1

[23] = system: other soil microbes including other pathogens, fungi, bacteria as well as other soil or water borne biota; assay: Toxicity to other soil microbes and biota; settings: TMT diluted with water
[24] = system: insects, annelids, crustaceans, molluscs, arachnids, birds and animals; assay: Observed effect on other small organisms, birds and animals; type: in vivo; settings: TMT diluted with water as in the embodiments and examples
From the text: The LD-50 for the rat is 2× the body mass of the rat, so it would drown before dying by ingestion.

[25] = system: rat; settings: ingestion; cited from earlier work
[26] = aqueous solution and foliar and stem spraying as in Example 5
[27] = thirty-six days, without watering or fertilizer since spraying

Sc1nc(S)nc(S)n1 [TMT, 1,3,5-Triazinane-2,4,6-Trithione]
indications of new growth ([1]; 0.0375% w/v aqueous solution, 20 L per tree sprayed to soil beneath two trees, within one week of spraying): marked new growth | feeder roots examined ([1]; 0.0375% w/v, soil spray, about seven and a half months after spraying): healthy feeder roots and earthworms were found | growth in size more than the surrounding trees ([1]; 0.0375% w/v, soil spray, within four months): 20-25% | appearance of treated trees versus surrounding trees ([1]; 0.0375% w/v, soil spray, within seven weeks of spraying): significantly different to the surrounding trees | shoot and root formation on treated grass sample [2]: shoots and roots formed thereon | new shoots and leaf growth [3]: new shoots from branch axils and new leaf growth appeared | functionality to stimulate growth [4]: increased synergistically | development of spores that break out of sporangias ([5]; 15% aqueous solution diluted at 1:500): do not develop | effect on Phytophthora ([5]; 15% aqueous solution diluted at 1:500 (10 ml/5 L), avocado soil with Phytophthora): kills and stops lifecycle of Phytophthora | effect on Phellinus in samples [6]: appeared to have been killed | effect on Pithium in samples [7]: appeared to have been killed | effect on fungal pathogen [8]: killed | growth response ([9]; 0.03% w/v, foliar and stem spray, one to three sprays, response in order of the number of sprays): extraordinary | fruit harvested, greater in mass for each additional spray ([9]; 0.03% w/v, foliar and stem spray, per additional spray): 10% | leaves in number and size, flower spikes and fruit set ([9]; 0.03% w/v, one to three sprays, relative to order of number of sprays): followed suit | fruit sweetness ([9]; observed but not measured): sweeter with increased spraying | brix (sugar content measurement) higher than the control trees [10, 26]: approximately 10% | fruit sweetness [10, 26]: noticeably sweeter | disease and insect predators versus surrounding trees ([10]; spraying as in Example 5): much less disease and fewer insect predators | leaves of treated trees versus surrounding trees ([10]; spraying as in Example 5): bigger brighter green leaves | frost damage ([10]; unseasonal frost, nearby unsprayed trees were subject to frost damage): not affected by an unseasonal frost | effect on fungal pathogen [11]: killed | success on killing off the fungus on affected plants [12]: 100% | flowering ([13]; single foliar spray 28 Jun. 2019, within two weeks, normal flowering end of August): coming into flower | flower maturation and fruit set ([13]; by 3 Aug. 2019, some thirty-six days from spraying): the initiated flowers had matured, and the setting of fruit had commenced | flowering ([13]; by 18 July, some three weeks after spraying): continue showing flowering | fruit growth ([13]; by 28 Sep. 2019, some ninety-six days from spraying): growing apace | new flowering [13, 27]: abundance of new flowering | signs of stress [13, 27]: not showing any signs of stress | flowering ([14]; 0.03% w/v foliar spray 28 Jun. 2019, after about two weeks, normally flowers in late August): came into flower | flowering ([14]; 0.03% w/v, after three weeks): continued to produce flowers | flower maturation and fruit (nut) set ([14]; 0.03% w/v, by 3rd August, some thirty-six days after spraying): the flowers have matured and the setting of fruit(nut) has commenced | fruit growth ([14]; 0.03% w/v, by 28 Sep. 2019, some ninety-six days from spraying): growing apace | new growth out of season [15]: gone into new growth | dry matter, mass relative to the control ([16]; 0.03% w/v spray): 200% +/−4 | effect on mite infection ([16]; 0.03% w/v spray): overturned the mite infection | treatment of grass die back from Phellinus and Pithium ([16]; 0.03% w/v spray, range of grass species, cause uncertain due to mealy bug): successful | time until dead patches were resolved completely ([16]; spray 50 L/50 m^2 on grazing land, house front lawn, golf course couch greens, except the football field (chlorinated town water)): 10 to 14 days | growth of trees showing poor growth [17]: marked improvement with growth | response of trees close to death [18]: slow but consistent response, with epicormic buds appearing on the tree trunks, under the bark and new leaves appearing on apparently dead branches | growth of crop plants [19]: improvement of growth | kill on contact [20]: kills | kill on contact [21]: kills | kill on contact [22]: kills | toxicity to other soil microbes and biota [23]: not to be toxic | effect on other small organisms, birds and animals [24]: benign | LD-50 [25]: 2 × the body mass of the rat
